Reference: patent US11110075B2, “Use of daphnetin in improving function of aortic endothelial cell” (XI'AN JIAOTONG UNIVERSITY, priority 2019, dated 2021)

Key:
[1] = system: mitochondrial membrane fusion related protein Mfn1; assay: Western blot protein detection of Mfn1 in palmitic acid treated HAECs; assay type: cell-based, human; conditions: FIG. 3A, 3B
Description: (§1) Human aortic endothelial cells (HAECs) were purchased from Shanghai Bioleaf Biotech Co., Ltd. Palmitic acid (PA) was purchased from SIGMA Company. A palmitic acid solution having a concentration of 500 μM was prepared by dissolving palmitic acid in water. A cell culture incubator was adopted to culture the cells in a temperature-constant, humidified, sterile condition. The cells were cultured in wells of culture plates at an atmosphere of 95% air and 5% CO2 at 37° C. in the incubator. The experiments were performed on different experimental groups of cells. The HAECs that were previously cultured in a 6-well cell culture plate were divided into 3 different experimental groups, the control (Ctrl) group, the PA group, and the DAP+PA group. The cells of the DAP+PA group were applied with daphnetin in a concentration of 100 μM followed with a 24-hour incubation. Then, the cells of both the PA group and the DAP+PA group were applied with 500 μM palmitic acid, all followed with another 24-hour incubation. The protein detection was respectively carried out on each group of cells as follows. The medium for cell culture in the wells was removed. 150 μL of IP lysis buffer was added to each well of the culture plate. […] The supernatants were collected, and the proteins therein were quantified by bicinchoninic acid (BCA) assay, and normalized. […] Target proteins were detected by chemiluminescence.

[2] = system: interleukin-6 (IL-6) mRNA; assay: IL-6 mRNA level detection by RT-PCR in palmitic acid treated HAECs; assay type: cell-based, human; conditions: FIG. 2
Description: (§2) Human aortic endothelial cells (HAECs) were purchased from Shanghai Bioleaf Biotech Co., Ltd. Palmitic acid (PA) was purchased from SIGMA Company. A palmitic acid solution having a concentration of 500 μM was prepared by dissolving palmitic acid in water. A cell culture incubator was adopted to culture the cells in a temperature-constant, humidified, sterile condition. The cells were cultured in wells of culture plates at an atmosphere of 95% air and 5% CO2 at 37° C. in the incubator. The experiments were performed on different experimental groups of cells.
The HAECs that were previously cultured in a 12-well cell culture plate were divided into 4 different experimental groups and respectively applied with daphnetin in the respective concentrations, 0 μM, 0 μM, 50 μM, 100 μM, and all followed with an 24-hour incubation. Then, the last 3 groups of cells were respectively applied with 500 μM palmitic acid, the first was not, and all followed with another 24-hour incubation. The detecting of mRNA levels corresponding to interleukin-6 (IL-6) was respectively carried out on each group of cells by using reverse transcription RNA and real-time quantitative polymerase chain reaction (PCR), and the specific method is as follows:
The medium for cell culture in the wells was removed. 500 μL of TRIzol™ reagent was added to each well, and the culture plate was then shaken at room temperature for 5 minutes. Then the cells in the wells were collected and transferred to a 1.5 mL eppendorf (EP) tube. 200 μl (taking […] of total volume of the substance in the EP tube) of chloroform was then added to the EP tube for extraction of […]. The samples were then vigorously stirred for 15 seconds, rested for 15 minutes at room temperature, and then centrifuged at a relative centrifugal force of 12,000 g for 10 minutes at 4° C. […] The concentration of the solution was measured by an ultraviolet spectrophotometer. […]

[3] = system: human aortic endothelial cells (HAECs); assay: MTT assay, viability of HAECs inhibited by palmitic acid; assay type: cell-based; conditions: HAECs pretreated with 10 μM daphnetin 24 h, then 500 μM palmitic acid 24 h; vs palmitic acid treated cells without daphnetin; FIG. 1
Description: as §2
The HAECs that were previously cultured in a 12-well cell culture plates were divided into 6 different experimental groups and respectively applied with daphnetin in different concentrations, 0 μM, 1 μM, 10 μM, 50 μM, 100 μM, and 200 μM, all followed with an 24-hour incubation. Then, each of the 6 groups of cells was further divided into two subgroups; one was applied with 500 μM palmitic acid, the other was not, and all followed with another 24-hour incubation.
An MTT assay was performed to all groups of cells. […] The absorbance was measured at a wavelength of 490 nm in a spectrophotometer. The absorbance of this colored solution can be quantified by measuring at a certain wavelength (usually between 500 and 600 nm) by a spectrophotometer.

[4] = system: mitochondrial membrane fusion related protein Mfn2; assay: Western blot protein detection of Mfn2 in palmitic acid treated HAECs; assay type: cell-based, human; conditions: 500 μM palmitic acid 24 h (PA group) vs control group, FIG. 3A, 3B
Description: as §1

**Q.** With O=c1ccc2ccc(O)c(O)c2o1 [daphnetin, 7,8-dihydroxycoumarin] as the molecule, how does the “relative protein expression level of Mfn1” value ([1]; 100 μM daphnetin 24 h then 500 μM palmitic acid 24 h (DAP+PA group) vs PA group) read?
**A.** The value was “significantly increasing”.

**Q.** And the “concentration dependence of inhibition of IL-6 mRNA level” value ([2]; HAECs pretreated with 50 μM or 100 μM daphnetin, then 500 μM palmitic acid)?
**A.** Its value is “inhibition effect increases with the concentration”.

**Q.** And the “mRNA level corresponding to IL-6” value ([2]; HAECs pretreated with 100 μM daphnetin 24 h, then 500 μM palmitic acid 24 h, vs palmitic acid alone)?
**A.** Its value is “significantly decreased”.

**Q.** What about the relative cell viability [3] of the same molecule?
**A.** Its relative cell viability is “higher viabilities”.

**Q.** Which results are given for CCCCCCCCCCCCCCCC(=O)O [palmitic acid]?
**A.** expression of Mfn1 ([1]; 500 μM palmitic acid 24 h (PA group) vs control group): reducing the expression; increase of mRNA level corresponding to IL-6 ([2]; HAECs, 500 μM palmitic acid 24 h without daphnetin, vs control group): about 20 times; expression of Mfn2 [4]: reducing the expression
